Assay results from paper PMC10206040, “Identification of novel anti-amoebic pharmacophores from kinase inhibitor chemotypes” (Frontiers in Microbiology, 2023).
Like-named read-outs stand apart in the source and are kept apart here.

Tests used:
[1] = tested on: MRC5 cells; test: Human fetal lung fibroblast (MRC5) cell cytotoxicity assay (resazurin); details: for MRC5 TC50 ± Standard Deviation: Table S2, in µM
Protocol: (§1) Intermediate plates were made as described, adding 95 μL of DMEM complete media to 5 μL of compound per well setting a 5% DMSO amount. Log-phase MRC5 cells were removed from a T-75 TC flask using TrypLE® Express (Thermo®) and dispersed by gentle pipetting. Cell density was adjusted to working concentration in prewarmed DMEM medium: 25,000 cells in 90 μL of culture were plated in 96-well transparent Nunclon plates and allowed to settle for 24 h at 37°C and 5% CO2. […] Plates were incubated for 48 h at 37°C and 5% CO2. At 4 h prior to fluorescence measurement, 20 μL of 500 μM resazurin solution was added.
(§2) A four-parameter equation was used to fit the dose–response curves and determination of EC50 by SigmaPlot ® 13.0 software. Assays were performed in duplicate at least twice for positive compounds, to achieve a minimal […] per dose response.

[2] = tested on: Acanthamoeba castellanii T4 isolate (ATCC 50370) trophozoites; test: CellTiter-Glo 2.0 trophocidal assay, A. castellanii; assay type: cell-based; details: Acanthamoeba castellanii, ATCC50370, 72 h, logarithmic trophozoites, 72 h, n = 3; read-out: Acanthamoeba castellanii EC50 ± SD
From the text: This isolate was purchased from American Type Culture Collection (ATCC). […] For sub-culturing, cells were mechanically harvested to detach the cells from the culture flasks.

[3] = tested on: L6 cells; test: Rat skeletal muscle cell line (L6) cytotoxicity assay (resazurin); details: Table S2; in µM
Protocol: (§3) One hundred microliters (100 μL) per well of culture medium containing the compounds and controls were added to L6 cells previously cultured (4 × 10^3 L6 cells per well). After 72 h at 37°C the medium was exchanged, and the viable cell number was determined by resazurin (Sigma–Aldrich) reduction. 20 μl of resazurin (1.1 mg/ml) was added to each well and incubated in the dark for 2 h at 37°C.

[4] = tested on: Balamuthia mandrillaris (CDC:V039; ATCC 50209) trophozoites; test: CellTiter-Glo 2.0 trophocidal assay, B. mandrillaris; assay type: cell-based
From the text: For sub-culturing, 0.25% Trypsin–EDTA (Gibco) cell detachment reagent was used to detach the cells from the culture flasks.

[5] = tested on: THP-1; test: Cytotoxicity assay in THP-1 (MTT); assay type: cell-based; details: Table S2, 72 h, maximal concentration 50 μM
Protocol: Cytotoxicity assay in TH P-1. Cellular toxicity of all compounds was determined using the colorimetric MTT-based assay after incubation at 37 °C for 72 h in the presence of increasing concentrations of compounds (final maximal concentration was 50 μM in 0.5% DMSO per well) [ 1] . The results are expressed […]
cells. Assays were performed in duplicate at least twice to achieve a minimal n=3 per dose response. […]
Cytotoxicity assay in THP-1. Cellular toxicity of all compounds was determined using the colorimetric MTT-based assay after incubation at 37 °C for 72 h in the presence of increasing concentrations of compounds (final maximal concentration was 50 μM in 0.5% DMSO per well). […] Assays were performed in duplicate at least twice to achieve a minimal n=3 per dose response.

[6] = tested on: Naegleria fowleri (ATCC 30215) trophozoites; test: microbe, parasite or virus in culture
Protocol: Trophozoites were routinely grown axenically at 34°C, 5% CO2, in Nelson’s complete medium (NCM) in non-vented 75 cm^2 tissue culture flasks (Olympus), until the cells were 80–90% confluent. For sub-culturing, cells were placed on ice to detach the cells from the culture flasks. […] Complete NCM media is prepared by the addition of 10% fetal bovine serum (FBS) and 100 U/mL penicillin, and 100 μg/mL streptomycin antibiotics.
Trophozoites were routinely cultured as described above and only logarithmic trophozoites were used.
All assays were incubated at each of the parasites’ representative growth temperatures, described above, for 72 h. At the 72-h time point, 25 μL of CellTiter-Glo 2.0 reagent was added to all wells of the 96-well plates by hand. The plates were protected from light and contents were mixed using an orbital shaker at 300 rpm at room temperature for 2 min to induce cell lysis. After shaking, the plates were equilibrated at room temperature for 10 min to stabilize the luminescent signal. The ATP luminescent signal (relative light units; RLUs) were measured […] with a SpectraMax I3X plate reader (Molecular Devices, Sunnyvale, CA, United States). […] Values reported are from a minimum of three biological replicates with standard deviation.

[7] = Human fetal lung fibroblast (MRC5) cell cytotoxicity assay (resazurin); details: human
Protocol: as §1, §2

[8] = Rat skeletal muscle cell line (L6) cytotoxicity assay (resazurin); details: rat
Protocol: as §3

[9] = Balamuthia mandrillaris, ATCC50209, 72 h, logarithmic trophozoites, 72 h, n = 3, read-out: Balamuthia mandrillaris EC50 ± SD
[10] = Naegleria fowleri, 72 h, read-out: Naegleria fowleri EC50 ± SD, logarithmic trophozoites, 72 h, n = 3 (converted)
[11] = MRC5 cells (human fetal lung fibroblasts)
[12] = L6 cells (rat skeletal muscle cell line)
[13] = Naegleria fowleri, ATCC30215, 72 h, read-out: Naegleria fowleri EC50 ± SD, logarithmic trophozoites, 72 h, n = 3 (converted)

| SMILES | MRC5 TC50 ± Standard Deviation [1] | EC50 [2] [µM] | L6 TC50 ± Standard Deviation [3] | EC50 [4, 9] [µM] | THP-1 TC50 ± Standard Deviation [5] | EC50 [6, 10] [µM] | CC50 at 48 h [7, 11] [µM] | CC50 at 72 h [8, 12] [µM] | selectivity versus MRC5 ([6]; N. fowleri EC50 versus MRC5 cells) [fold] | selectivity versus THP-1 ([6]; N. fowleri EC50 versus THP-1 cells) [fold] | activity/toxicity against MRC5 cells (in words) ([1]; up to 50 μM) | EC50 ([4]; logarithmic trophozoites, 72 h, n = 3, read-out: Balamuthia mandrillaris EC50 ± SD) [µM] | EC50 [6, 13] [µM] | EC50 ([6]; read-out: Naegleria fowleri EC50 ± SD, logarithmic trophozoites, 72 h, n = 3) [µM] | CC50 at 48 h [7] [µM] | CC50 at 72 h [8] [µM] | EC50 ([4]; Balamuthia mandrillaris, ATCC50209, 72 h, read-out: Balamuthia mandrillaris EC50 ± SD, logarithmic trophozoites, 72 h, n = 3 (converted)) [µM] |
| --- | --- | --- | --- | --- | --- | --- | --- | --- | --- | --- | --- | --- | --- | --- | --- | --- | --- |
| Cn1cc(Nc2nc(NCCCC(F)(F)F)c3nc[nH]c3n2)cn1 [Compound S24] | 50 ± 0 | > 20 | > 50 | > 20 | > 50 | > 20 |  |  |  |  |  |  |  |  |  |  |  |
| CNc1nccc(-c2cc3c4c(n[nH]c4c2)Nc2ccccc2O3)n1 [Compound 1c] | > 50 | 3.3 ± 0.31 | 6.3 ± 0.55 | 1.9 ± 1.3 | 5.0 ± 0.11 |  | > 50 | 6.3 ± 0.55 | > 10 | > 10 |  |  |  |  |  |  |  |
| Cn1cc(Nc2nc(NCC(F)(F)F)c3nc[nH]c3n2)cn1 [Compound S21] | 50 | > 20 | 28 ± 1.4 | > 20 | > 50 | > 20 |  |  |  |  |  |  |  |  |  |  |  |
| Cc1c(-c2cnn(C3CCOCC3)c2)cnc2[nH]cc(-c3cccc(C#N)c3)c12 [Compound 4b] | > 50 | 11 ± 2.3 | 11 ± 1.5 | 1 ± 0.12 | > 50 |  | > 50 | 11 ± 1.5 |  |  | not toxic |  |  |  |  |  |  |
| CCOc1cc(-c2ccnc(N)n2)cc2c1c(N)nn2C [Compound 1d] | > 50 | 12 ± 8.3 | > 17 ± 0.052 | 9.49 ± 0.23 | > 50 |  | > 50 | > 17 |  |  |  | 9.5 ± 0.23 | > 20 |  |  |  |  |
| Cn1cc(-c2cnc3[nH]cc(-c4cncc(C#N)c4)c3c2)cn1 [Compound 4e] | > 50 |  | > 50 | 8.3 ± 1.3 | > 50 |  | > 50 |  |  |  |  |  | > 20 |  |  |  |  |
| FC1(F)CCN(c2nc(Nc3ccsc3)nc3[nH]cnc23)CC1 [Compound 6e] | > 50 |  | > 50 |  | > 50 |  | > 50 | > 50 |  |  |  |  | > 20 |  |  |  |  |
| O=C1OCc2ccc(Nc3nccc(Nc4cccc5c4C(=O)NC5)n3)cc21 [Compound S20, 7-((2-((3-oxo-1,3-dihydroisobenzofuran-5-yl)amino)pyrimidin-4-yl)amino)isoindolin-1-one] | > 50 | > 20 | > 50 | > 20 | > 50 |  |  |  |  |  |  |  | 3.3 ± 1 |  |  |  |  |
| N#Cc1cccc(-c2n[nH]c3ncc(-c4cnn(C5CCOCC5)c4)cc23)c1 [Compound 4a] | > 50 | 11 ± 9 | 2.8 ± 0.92 | 3.3 ± 0.62 | > 50 |  | > 50 | 2.8 ± 0.92 |  |  |  |  |  |  |  |  |  |
| O=C(N[C@H](CO)c1ccccc1)c1cc(-c2c[nH]c3ncccc23)[nH]n1 [Compound S12, (S)-N-(2-Hydroxy-1-phenylethyl)-5-(1H-pyrrolo[2,3-b]pyridin-3-yl)-1H-pyrazole-3-carboxamide] | 42 ± 7.7 | > 20 | > 17 | > 20 | 42 ± 11 |  |  |  |  |  |  |  | > 20 |  |  |  |  |
| O=C(N[C@H](CO)c1ccccc1)c1ccc(-c2c[nH]c3ncccc23)nc1 [Compound S15, (S)-N-(2-Hydroxy-1-phenylethyl)-6-(1H-pyrrolo[2,3-b]pyridin-3-yl)nicotinamide] | > 50 | > 20 | > 50 | > 20 | 26 ± 2.0 |  |  |  |  |  |  |  | > 20 |  |  |  |  |
| c1cc(-c2c[nH]c3ncc(-c4cnn(C5CCOCC5)c4)cc23)ccn1 [Compound S31] | 7.9 ± 2.3 | > 20 | 5.7 ± 0.49 | > 20 | 5.8 ± 0.43 | > 20 |  |  |  |  |  |  |  |  |  |  |  |
| Fc1ccc(Nc2nc(NCC(F)(F)F)c3nc[nH]c3n2)cc1 [Compound S23] | > 50 | > 20 | > 50 | > 20 | > 50 | > 20 |  |  |  |  |  |  |  |  |  |  |  |
| Nc1ccnc(-c2cc3c4c(n[nH]c4c2)Nc2ccccc2O3)n1 [Compound 1a] | > 50 | 3.8 ± 0.46 | 32 ± 2.5 | 17 ± 3 | > 50 |  | > 50 | 32 ± 2.5 |  |  |  |  | ≤ 14 | 8.5 ± 0.34 |  |  |  |
| Cn1cc(Nc2nc(N3CCOCC3)c3nc[nH]c3n2)cn1 [Compound S22] | 19 ± 0.42 | > 20 | 11 ± 1.0 | > 20 | 19 ± 0.52 | > 20 |  |  |  |  |  |  |  |  |  |  |  |
| CN(C)Cc1ccc(-c2cc3c(-c4cnn(C)c4)ccnc3[nH]2)cc1 [Compound 5c] | 14 ± 2.4 |  | < 0.62 |  | < 0.62 | 5.6 ± 0.29 |  |  |  |  |  |  |  |  | 11 ± 0.9 | < 0.62 | 12 ± 0.09 |
